# Test results: patent US20100048575A1, “NOVEL TETRACYCLIC INHIBITORS OF CYSTEINE PROTEASES, THE PHARMACEUTICAL COMPOSITIONS THEREOF AND THEIR THERAPEUTIC APPLICATIONS” (priority 2006, published 2010)
# Target: T1, USP8 (Homo sapiens, UniProt P40818)
# T1 construct: His tag (from vector pFastBac-HT) (N); made in house; host or cells: insect cells (Sf9 or High Five), baculovirus
# T1 sequence (P40818 1-1118): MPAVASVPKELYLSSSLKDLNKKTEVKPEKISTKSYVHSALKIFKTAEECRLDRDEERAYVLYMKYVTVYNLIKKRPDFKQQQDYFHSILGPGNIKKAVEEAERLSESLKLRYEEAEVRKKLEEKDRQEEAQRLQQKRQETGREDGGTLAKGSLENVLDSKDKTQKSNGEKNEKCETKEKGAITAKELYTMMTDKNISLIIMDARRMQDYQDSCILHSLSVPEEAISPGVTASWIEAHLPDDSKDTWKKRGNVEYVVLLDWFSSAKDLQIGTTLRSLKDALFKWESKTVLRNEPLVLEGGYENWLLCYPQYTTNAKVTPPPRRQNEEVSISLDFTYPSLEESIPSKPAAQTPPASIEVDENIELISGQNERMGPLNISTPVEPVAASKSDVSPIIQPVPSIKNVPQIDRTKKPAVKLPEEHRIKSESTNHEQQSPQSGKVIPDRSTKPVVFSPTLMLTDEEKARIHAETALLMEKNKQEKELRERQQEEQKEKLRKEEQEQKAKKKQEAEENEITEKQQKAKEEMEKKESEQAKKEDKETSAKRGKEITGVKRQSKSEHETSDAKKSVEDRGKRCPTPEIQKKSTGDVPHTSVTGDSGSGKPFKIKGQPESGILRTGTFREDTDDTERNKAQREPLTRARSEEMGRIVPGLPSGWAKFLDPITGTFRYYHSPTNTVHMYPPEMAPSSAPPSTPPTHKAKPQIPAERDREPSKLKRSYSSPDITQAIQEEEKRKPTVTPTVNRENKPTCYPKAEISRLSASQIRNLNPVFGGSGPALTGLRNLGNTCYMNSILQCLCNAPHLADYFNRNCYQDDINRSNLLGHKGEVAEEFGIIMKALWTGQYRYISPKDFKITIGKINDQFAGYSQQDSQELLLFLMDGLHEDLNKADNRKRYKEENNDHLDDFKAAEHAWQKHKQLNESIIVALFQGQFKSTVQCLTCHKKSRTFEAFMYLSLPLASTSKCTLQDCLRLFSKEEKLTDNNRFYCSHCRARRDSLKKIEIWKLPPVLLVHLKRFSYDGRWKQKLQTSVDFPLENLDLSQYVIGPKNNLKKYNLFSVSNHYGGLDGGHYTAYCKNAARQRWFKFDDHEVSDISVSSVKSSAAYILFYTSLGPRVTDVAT
# Test: USP8 activity assay (Ub-AMC)
# Format: biochemical
# Conditions: 400 nM Ub-AMC, 630 pM enzyme, pH8.8, 30 min pre-incubation, 60 min at 37° C., sigmoidal fit; read-out: USP8 (inhibition of cysteine protease activity)
# Description: The cDNA encoding USP8 was obtained by PCR amplification from placenta mRNA. USP8 cDNA was subcloned by PCR into a baculovirus expression vector (pFastBac-HT; Invitrogen). A cDNA encoding a mutated USP8 was generated by mutagenic PCR. The corresponding protein encodes a cysteine to alanine substitution at residue 786. The sequences were ascertained by sequencing of the entire open reading frame. Bacmids encoding […] were generated following. DH10bac transposition. The corresponding bacmids were transfected into insect cells (Sf9). Viruses were recovered from culture supernatant and amplified twice. Insect cells (Sf9 or High Five; Invitrogen) were infected for 72 hours. Total cell lysates were harvested and lyzed in lysis buffer (Tris HCl 50 mM pH7.6; 0.75% NP40; 500 mM NaCl; 10% glycerol; 1 mM DTT; 10 mM imidazole; Protease Inhibitor Cocktail; AEBSF 20 μg.ml^−1; Aprotinin 10 μg.ml^−1). Proteins were affinity purified on metal affinity resins (Talon Metal affinity resin; BD Biosciences). Bound materials were extensively washed in wash buffer (50 mM Sodium Phosphate pH 7.0; 300 mM NaCl; 10 mM imidazole; 0.5% Triton X-100; 10% glycerol) and eluted from the resin in 250 mM imidazole-containing wash buffer. Proteins were dialyzed in dialysis buffer (Tris HCl pH 7.6 20 mM; NaCl 200 mM; DTT 1 mM; EDTA 1 mM; 10% Glycerol). Proteins purifications were analyzed on 4-12% NuPAGE (Invitrogen).
# USP8 was diluted in USP buffer (50 mM Tris HCl; 0.5 mM EDTA; 5 mM DTT; 0.01% Triton X-100; Bovine Serum Albumin 0.05 mg.ml^−1 pH8.8). Compounds stocks (100 mM) were stored at −20° C. in DMSO.
# Reactions were performed as duplicates in Black LJL 96 well plates (HE microplates; Molecular Devices; 20 μl final reaction volume). The substrate concentration for USP8 was 400 nM Ub-AMC (Boston Biochem). The concentrations of the enzyme (USP8) in specificity assays was 630 pM. The concentrations were determined in order to perform specificity assays under initial velocities at fixed substrate concentration. Compounds were pre-incubated with enzymes for 30 minutes at 25° C. Reactions were initiated by addition of substrate to the plates containing the enzymes (+/−compounds) diluted in assay buffer. Reactions were incubated for 60 minutes at 37° C. Reactions were stopped by adding acetic acid (100 mM final). Readings were performed on a Pherastar Fluorescent Reader (BMG). λ Emission 380 nm; λ Excitation=460 nm. Data (mean values +/−standard deviation) were analyzed as % of control (no compound) and plotted as percentage versus the Log of the compound concentration using GraphPad (Prism). Data were fitted to a sigmoidal model (variable slope).
row,SMILES,IC50 [nM]
1,"CON=C1c2ccccc2-c2nn3c(C)nnc3nc21 (mixture of isomers) [5a, 3-Methyl-1,2,3a,4,10-pentaaza-cyclopenta[b]fluoren-9-one O-methyl-oxime]",580
2,"C=CCON=C1c2ccccc2-c2nn3c(C)nnc3nc21 (mixture of isomers) [5b, 3-Methyl-1,2,3a,4,10-pentaaza-cyclopenta[b]fluoren-9-one O-allyl-oxime]",355
3,"C=CCON=C1c2ccccc2-c2nn3c(CCCC)nnc3nc21 (mixture of isomers) [5d, 3-Butyl-1,2,3a,4,10-pentaaza-cyclopenta[b]fluoren-9-one O-allyl-oxime]",565
4,"CCCCCCCCCCON=C1c2ccccc2-c2nn3nnnc3nc21 (mixture of isomers) [8a, 1,2,3,3a, 4,10-Hexaaza-cyclopenta[b]fluoren-9-one O-decyl-oxime]",27800
5,"c1ccc(OCCCON=C2c3ccccc3-c3nn4nnnc4nc32)cc1 (mixture of isomers) [8c, 1,2,3,3a,4,10-Hexaaza-cyclopenta[b]fluoren-9-one O-(3-phenoxy-propyl)-oxime]",225
6,"CCc1nnc2nc3c(nn12)-c1ccccc1C3=NOC (mixture of isomers) [10b, 3-Ethyl-1,2,3a,4,10-pentaaza-cyclopenta[b]fluoren-9-one O-methyl-oxime]",528
7,"CCON=C1c2ccccc2-c2nn3c(CC)nnc3nc21 (mixture of isomers) [10d, 3-Ethyl-1,2,3a,4,10-pentaaza-cyclopenta[b]fluoren-9-one O-ethyl-oxime]",381
8,"C=CCON=C1c2ccccc2-c2nn3c(CC)nnc3nc21 (mixture of isomers) [10f, 3-Ethyl-1,2,3a,4,10-pentaaza-cyclopenta[b]fluoren-9-one O-allyl-oxime]",342
9,"CCc1nnc2nc3c(nn12)-c1ccccc1C3=NOCc1ccccc1 (mixture of isomers) [10h, 3-Ethyl-1,2,3a,4,10-pentaaza-cyclopenta[b]fluoren-9-one O-benzyl-oxime]",807
